Where a SMILES comes first, the peptide text is derived from it. [ ]: non-standard residue; d: D form. The star is where a group is joined. NHCH2CH2OH = OCCN*; For = O=C*
Legend:
[1] = test system: Streptococcus pyogenes SSI-9; experiment: Antibacterial activity assay of bead-derived peptides (three concentrations); assay type: cell-based; parameters: key: +++: inhibition by the 640-fold diluted peptide solution; ++: inhibition by the 160-fold diluted solution; +: inhibition by the 40-fold diluted solution; -: no inhibition; conditions: S. pyogenes, bead-derived peptide solution, three concentrations
Procedure, shortened: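 Bead-derived library peptide stocks in DMSO were tested undiluted and after 4- and 16-fold DMSO dilution against S. pyogenes SSI-9 (2 × 10^5 CFU/well) in cation-adjusted Mueller Hinton Broth with 5% laked horse blood. After 18 h at 37 °C, wells were scored for precipitation of grown cells.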

[2] = H+/Na+ transport assay of bead-derived peptides (one-point); assay type: biochemical; parameters: key: relative activity; mean of two control wells = 1.00; conditions: bead-derived peptide solution, EYPC/EYPG LUVs;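 also: relative to parent gramicidin A activity set to 1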
Procedure, shortened: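 Values are normalized fluorescence, with Triton X-100 defining 100% and untreated LUVs 0%, and the two control wells averaging 1.00. Vesicles carried 1.0 mM pyranine and included egg yolk phosphatidylglycerol. Peptides were incubated with them 30 min at room temperature.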

[3] = cell viability/%
Procedure, shortened: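 First, library peptide stocks are diluted 250-fold in RPMI1640 with 10% heat-inactivated FBS. Next, they are mixed with P388 cells to give 1 × 10^4 cells/mL and incubated 92 h at 37 °C, 5% CO2. Finally, viability (%) is scored by WST-1 absorbance at 415 nm.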

With CNC(=O)C[C@@H](NC(=O)[C@@H](NC(=O)[C@@H](CC(C)C)NC(=O)[C@H](C)NC(=O)[C@@H](CC(C)C)NC(=O)[C@H](C)NC(=O)CNC(=O)[C@@H](NC=O)C(C)C)C(C)C)C(=O)N[C@@H](Cc1c[nH]c2ccccc12)C(=O)N[C@@H](C(=O)N[C@@H](Cc1c[nH]c2ccccc12)C(=O)N[C@H](CC(C)C)C(=O)N[C@@H](Cc1c[nH]c2ccccc12)C(=O)N[C@@H](C(=O)N[C@@H](Cc1c[nH]c2ccccc12)C(=O)NCCO)[C@H](C)O)C(C)C [compound 3280] (For-VGA[dL]A[dL]V[dD](NHMe)W[dV]W[dL]W[dT]W-NHCH2CH2OH) the antibacterial activity [1] was “-”, the “H+/Na+ transport activity normalized against the value of 1 (1.00)” value (from here on “H+/Na+ transport activity normalized”) [2] was 1.20 and the viability [3] was 100%.

With CC(C)C[C@@H](NC(=O)[C@H](C)NC(=O)[C@H](NC(=O)[C@H](C)NC(=O)CNC(=O)[C@@H](NC=O)C(C)C)C(C)C)C(=O)N[C@H](C(=O)N[C@@H](C(=O)N[C@@H](Cc1c[nH]c2ccccc12)C(=O)N[C@H](CC(C)C)C(=O)N[C@@H](Cc1c[nH]c2ccccc12)C(=O)N[C@@H](C(=O)N[C@@H](Cc1c[nH]c2ccccc12)C(=O)N[C@@H](C(=O)N[C@@H](Cc1c[nH]c2ccccc12)C(=O)NCCO)[C@H](C)O)C(C)C)[C@H](C)O)C(C)C [compound 3328] (For-VGA[dV]A[dL]V[dT]W[dL]W[dV]W[dT]W-NHCH2CH2OH) the antibacterial activity [1] was “-”, the “H+/Na+ transport activity normalized” value [2] was 1.08 and the viability [3] was 100%.

In the case of CNC(=O)C[C@@H](NC(=O)[C@H](Cc1c[nH]c2ccccc12)NC(=O)[C@H](NC(=O)[C@@H](NC(=O)[C@@H](CC(C)C)NC(=O)[C@H](C)NC(=O)[C@@H](CC(C)C)NC(=O)[C@H](C)NC(=O)CNC(=O)[C@@H](NC=O)C(C)C)C(C)C)C(C)C)C(=O)N[C@@H](Cc1c[nH]c2ccccc12)C(=O)N[C@H](CC(C)C)C(=O)N[C@@H](Cc1c[nH]c2ccccc12)C(=O)N[C@@H](C(=O)N[C@@H](Cc1c[nH]c2ccccc12)C(=O)NCCO)C(C)C [compound 3329] (For-VGA[dL]A[dL]V[dV]W[dD](NHMe)W[dL]W[dV]W-NHCH2CH2OH), the antibacterial activity [1] is reported as “+”, the “H+/Na+ transport activity normalized” value [2] is reported as 1.33 and the viability [3] is reported as 100%.

For CNC(=O)C[C@@H](NC(=O)[C@H](Cc1c[nH]c2ccccc12)NC(=O)[C@H](NC(=O)[C@H](Cc1c[nH]c2ccccc12)NC(=O)[C@@H](CC(C)C)NC(=O)[C@@H](NC(=O)[C@H](NC(=O)[C@H](C)NC(=O)[C@H](NC(=O)[C@H](C)NC(=O)CNC(=O)[C@@H](NC=O)C(C)C)C(C)C)C(C)C)C(C)C)C(C)C)C(=O)N[C@@H](Cc1c[nH]c2ccccc12)C(=O)N[C@@H](C(=O)N[C@@H](Cc1c[nH]c2ccccc12)C(=O)NCCO)C(C)C [compound 3369] (For-VGA[dV]A[dV]V[dL]W[dV]W[dD](NHMe)W[dV]W-NHCH2CH2OH), the antibacterial activity [1] was “-”, the “H+/Na+ transport activity normalized” value [2] was 1.00 and the viability [3] was 100%.

For CC(C)C[C@@H](NC(=O)[C@H](C)NC(=O)[C@H](NC(=O)[C@H](C)NC(=O)CNC(=O)[C@@H](NC=O)C(C)C)C(C)C)C(=O)N[C@H](C(=O)N[C@@H](C(=O)N[C@@H](Cc1c[nH]c2ccccc12)C(=O)N[C@@H](C(=O)N[C@@H](Cc1c[nH]c2ccccc12)C(=O)N[C@@H](C(=O)N[C@@H](Cc1c[nH]c2ccccc12)C(=O)N[C@@H](C(=O)N[C@@H](Cc1c[nH]c2ccccc12)C(=O)NCCO)C(C)C)C(C)C)C(C)C)[C@H](C)O)C(C)C [compound 3492] (For-VGA[dV]A[dL]V[dT]W[dV]W[dV]W[dV]W-NHCH2CH2OH), the antibacterial activity [1] was “-”, the “H+/Na+ transport activity normalized” value [2] was 1.12 and the viability [3] was 100%.

For CNC(=O)C[C@@H](NC(=O)[C@H](Cc1c[nH]c2ccccc12)NC(=O)[C@H](NC(=O)[C@H](Cc1c[nH]c2ccccc12)NC(=O)[C@@H](CC(C)C)NC(=O)[C@H](Cc1c[nH]c2ccccc12)NC(=O)[C@H](NC(=O)[C@@H](NC(=O)[C@H](NC(=O)[C@H](C)NC(=O)[C@@H](CC(C)C)NC(=O)[C@H](C)NC(=O)CNC(=O)[C@@H](NC=O)C(C)C)C(C)C)C(C)C)C(C)C)C(C)C)C(=O)N[C@@H](Cc1c[nH]c2ccccc12)C(=O)NCCO [compound 3499] (For-VGA[dL]A[dV]V[dV]W[dL]W[dV]W[dD](NHMe)W-NHCH2CH2OH), the antibacterial activity [1] was “+”, the “H+/Na+ transport activity normalized” value [2] was 1.01 and the viability [3] was 100%.

With CNC(=O)C[C@@H](NC(=O)[C@@H](NC(=O)[C@H](NC(=O)[C@H](C)NC(=O)[C@@H](CC(C)C)NC(=O)[C@H](C)NC(=O)CNC(=O)[C@@H](NC=O)C(C)C)C(C)C)C(C)C)C(=O)N[C@@H](Cc1c[nH]c2ccccc12)C(=O)N[C@@H](C(=O)N[C@@H](Cc1c[nH]c2ccccc12)C(=O)N[C@@H](C(=O)N[C@@H](Cc1c[nH]c2ccccc12)C(=O)N[C@H](CC(C)C)C(=O)N[C@@H](Cc1c[nH]c2ccccc12)C(=O)NCCO)C(C)C)C(C)C [compound 3596] (For-VGA[dL]A[dV]V[dD](NHMe)W[dV]W[dV]W[dL]W-NHCH2CH2OH) the antibacterial activity [1] was “-”, the “H+/Na+ transport activity normalized” value [2] was 1.06 and the viability [3] was 100%.

With CC(C)C[C@@H](NC(=O)[C@H](C)NC(=O)CNC(=O)[C@@H](NC=O)C(C)C)C(=O)N[C@@H](C)C(=O)N[C@@H](C(=O)N[C@H](C(=O)N[C@H](CC(C)C)C(=O)N[C@@H](Cc1c[nH]c2ccccc12)C(=O)N[C@@H](C(=O)N[C@@H](Cc1c[nH]c2ccccc12)C(=O)N[C@@H](C(=O)N[C@@H](Cc1c[nH]c2ccccc12)C(=O)N[C@@H](C(=O)N[C@@H](Cc1c[nH]c2ccccc12)C(=O)NCCO)C(C)C)C(C)C)C(C)C)C(C)C)[C@H](C)O [compound 3733] (For-VGA[dL]A[dT]V[dL]W[dV]W[dV]W[dV]W-NHCH2CH2OH) the antibacterial activity [1] was “-”, the “H+/Na+ transport activity normalized” value [2] was 1.11 and the viability [3] was 100%.

In the case of CNC(=O)C[C@@H](NC(=O)[C@H](Cc1c[nH]c2ccccc12)NC(=O)[C@@H](CC(C)C)NC(=O)[C@H](Cc1c[nH]c2ccccc12)NC(=O)[C@@H](CC(C)C)NC(=O)[C@@H](NC(=O)[C@@H](CC(C)C)NC(=O)[C@H](C)NC(=O)[C@@H](CC(C)C)NC(=O)[C@H](C)NC(=O)CNC(=O)[C@@H](NC=O)C(C)C)C(C)C)C(=O)N[C@@H](Cc1c[nH]c2ccccc12)C(=O)N[C@@H](C(=O)N[C@@H](Cc1c[nH]c2ccccc12)C(=O)NCCO)[C@H](C)O [compound 3773] (For-VGA[dL]A[dL]V[dL]W[dL]W[dD](NHMe)W[dT]W-NHCH2CH2OH), the antibacterial activity [1] is reported as “-”, the “H+/Na+ transport activity normalized” value [2] is reported as 1.03 and the viability [3] is reported as 100%.

For CC(C)C[C@@H](NC(=O)[C@H](C)NC(=O)[C@H](NC(=O)[C@H](C)NC(=O)CNC(=O)[C@@H](NC=O)C(C)C)[C@H](C)O)C(=O)N[C@H](C(=O)N[C@H](CC(C)C)C(=O)N[C@@H](Cc1c[nH]c2ccccc12)C(=O)N[C@H](CC(C)C)C(=O)N[C@@H](Cc1c[nH]c2ccccc12)C(=O)N[C@H](CC(C)C)C(=O)N[C@@H](Cc1c[nH]c2ccccc12)C(=O)N[C@@H](C(=O)N[C@@H](Cc1c[nH]c2ccccc12)C(=O)NCCO)C(C)C)C(C)C [compound 3778] (For-VGA[dT]A[dL]V[dL]W[dL]W[dL]W[dV]W-NHCH2CH2OH), the antibacterial activity [1] was “-”, the “H+/Na+ transport activity normalized” value [2] was 1.08 and the viability [3] was 100%.

From PMC7531004, “Discovery of gramicidin A analogues with altered activities by multidimensional screening of a one-bead-one-compound library” (Nature Communications, 2020)
